Source: patent US20180289666A1, “FLAVONOLIGNANS FOR TREATMENT OF AUTOIMMUNE INFLAMMATORY DISEASES” (Macau University of Science and Technology, priority 2017, published 2018)

Tests used:
AIA rats [1] = assay: Radiological and histopathological examination of hind paws / ankle joints of AIA rats; type: in vivo, Sprague-Dawley (SD) rats
Procedure: Disease severity and progression were evaluated by measurements of both hind paw volumes with a plethysmometer chamber (Yiyan technology, Jinan, China) and body weight with a 0.1 g precision balance (Sartorius AG, Göttingen, Germany) every two or three days after arthritis induction. For evaluation the arthritic scoring, the lesions of four paws of each rat (i.e., the arthritic signs) were graded by two separate investigators with a semi-quantitative scale: 0 (normal), 4-8 (mild changes), 8-12 (moderate changes), and 12-16 (severe changes) (van Eden W., et. al., J. E. Coligan, Editor. 2001, John Wiley: New York. p. 1-11). Erythrocyte sedimentation rate (ESR) was determined with ICSH (International Council for Standardization in Hematology) selected method with little modifications at day 42. Briefly, 120 μl of blood sample was taken directly and put into 30 μl of 0.109 mol/L sodium citrate, mixed well, and then transferred into a 1.0 mm×100 mm capillary tube (West China Medical University, ChengDu, China). The tubes were held obliquely at an angle of […] and the erythrocyte sedimentation rate was recorded at 15 min. The cytokines levels including IL-1β, TNF-α, IL-17, IL-33, MMP-9, TIMP-1 and PGE2 in serum were measured using commercially available ELISA kits according to the manufacturers instructions. At the end of the experiments, rat knee images were measured (mean of three readings per knee, Meinaite digital calliper, ShangHai, China) using a IVIS Lumina XRMS Series (PerkinElmer, America) (Esser, R. E., et al., Arthritis Rheum, 1995, 38(1): p. 129-38).
For histopathological assessment, arthritic paws were collected on day 42 after X-ray check, fixed with 10% phosphate buffered saline (PBS) buffered formalin, and decalcified for 3 days in formic acid. Sections from paraffin-embedded tissue were stained with hematoxylin and eosin (H&E). The obtained plasma was stored in −70° C. for metabolomic studies. The relative organ weight ratios (such as liver index, spleen index, kidney index, lung index) were calculated by dividing the weight of each organ with the body weight.

AIA rats [2] = assay: Assessment of liver abnormality and lipid profile in AIA model; type: in vivo, Sprague-Dawley (SD) rats
Procedure: Serum ALT, AST, ALP, GGT and total bilirubin were measured by automatic biochemical analyzer (Toshiba Corporation, Tokyo, Japan). Lipids profile including TG, TC, HDL-C, LDL-C/vLDL-C and free fatty acids were measured in the serum. After animals were sacrificed, tissues of liver were fixed in 10% formalin solution, cleared in xylene, embedded in paraffin blocks from which 5 micron-thick sections were obtained. Sections were stained with H&E dye and examined for pathological changes under light microscope by a pathologist blind to the specimens.

[3] = test system: key enzymes involved in lipid metabolism in liver; assay: Real-time PCR and Western blot of lipid metabolism enzymes in liver of AIA rats; type: in vivo, Sprague-Dawley (SD) rats; conditions: AIA rats liver
Procedure: Total RNA was isolated from the frozen liver of the AIA model using TRIzol® Reagent (Life technology, USA). mRNA was purified by binding to poly(dT) magnetic beads using Dynabeads® mRNA DIRECT™ Kit (Life technology, Norway) and reverse transcribed using SuperScript® III reverse transcriptase (Invitrogen, California, USA) as described by the manufacturer. Quantitative real-time PCR was performed using SYBR Green (Sigma-Aldrich, Louis, USA) on the ViiA™ 7 Real-Time PCR System (Applied Biosystems, FosterCity, USA). Quantitative RT-PCR analysis was performed using SYBR Green reagents and ViiA™ 7 Real-Time PCR System. Gene expression levels were calculated from cycle threshold (Ct) values and normalized with control gene GAPDH.
Liver tissue homogenates of AIA and MCD animal models were lysed in RIPA buffer (50 mM pH 7.4 Tris, 150 mM NaCl, 1% Triton X-100, 1% sodium deoxycholate, 0.1% SDS, sodium orthovanadate, sodium fluoride and EDTA) containing protease inhibitor cocktails (Roche Life Science, USA). Protein concentration was determined using the BCA protein assay kit (BIO-RAD, USA). Equal amounts of total protein were resolved using SDS-PAGE and transferred onto PVDF membranes (Millipore, Darmstadt, Germany). After incubation in a blocking solution containing with 5% (w/v) skim milk (Nestle Carnation, New Zealand) in TBST buffer (10 mM tris-buffered saline and 0.1% Tween20) for 1 h at room temperature and incubated with primary antibodies overnight at 4° C. The membranes were washed three times with 1×TBST solutions and incubated with the appropriate secondary antibodies at room temperature for 45 min, and subsequently visualized with an enhanced chemiluminescence detection kit (SuperSignal™ West Pico Chemiluminescent Substrate, Thermo Scientific, USA). β-actin was used as the loading control for the experimental data analysis.

AIA rats [4] = assay: Plasma metabolomics by LC-MS/MS in AIA rats; type: in vivo, Sprague-Dawley (SD) rats
Procedure: The plasma sample (200 μL) was thawed on ice for 5 min prior to sample preparation and was mixed with 200 μL of 10 mM N-ethylmaleimide (NEM) in PBS buffer solution and 1000 μL of methanol containing internal standard (I.S.) Phe-d5 in 10 ng/ml. This mixture was incubated at −20° C. for 20 min, and then centrifuged at 12000 rpm for 10 min at 4° C. The supernatant was completely dried under nitrogen flow (Pressure Blowing Concentrator, Tokyo Rikakika, Tokyo, Japan) and reconstituted with distilled water.
LC-MS/MS analysis was performed on A Waters ACQUITY UPLC coupled with a 4000 Q-TRAP mass spectrometer. Chromatographic separation was carried on a Waters X Bridge™ BEH C18 analytical column (2.5 μm, 3.0×100 mm; Waters, Torrance, Calif.) with a mobile phase composed of 0.1% formic acid water (solvent A) and methanol (solvent B) which was running in a gradient program: 0-3.0 min (0%-1% B); 3.0-10.0 min (1-3% B); 10.0-14.0 min (3-50% B); 14.0-18.0 min (50-95% B); 18.0-22.0 min (95-0% B); followed by a 3-min re-equilibration step. The injection volume was 10 μl at 4° C. and flow rate was 0.6 ml/min. Electrospray (ESI) source were used in both positive and negative ion mode. […]
The normalized data were exported and further processed by PCA and PLS-DA using a multivariate analysis package SIMCA-P software (Umea, Sweden). Model quality was evaluated based on the relevant values of R^2 and Q^2. […]

AIA rats [5] = conditions: AIA rats; MTX alone; versus vehicle-treated AIA rats

For CN(Cc1cnc2nc(N)nc(N)c2n1)c1ccc(C(=O)N[C@@H](CCC(=O)O)C(=O)O)cc1 [MTX, methotrexate, reference compound], the “cartilage and joint destruction of the arthritic joints (radiographs)” value (AIA rats [1]; MTX, day 42) was “ameliorated”, the “infiltration of inflammatory cells, synovial hyperplasia” value (AIA rats [1]; ankle joint sections, H&E) was “diminished” and the “histological grade of representative ankle joint sections” value (AIA rats [1]; day 42, H&E, FIG. 2C (MTX; Silybin 200 mg/kg), vehicle-treated AIA grade 2/3) was 0. The “histopathological assessment of liver tissue” value (AIA rats [2]; H&E liver sections) was “congested portal tract and mild fatty changes with lipid drop lets”, the “dyslipidemia (serum lipid profile)” value (AIA rats [2]; MTX) was “successfully improved” and the ALT serum level (AIA rats [2]; methotrexate alone, 42 days) was “significant increase”. For the same molecule, the GGT serum level (AIA rats [2]; methotrexate alone, 42 days) was “significant increase”, the “expression of aP2 in the liver” value [3] was “reduced” and the “mRNA and/or protein expression of LPL, CYP7A1, and SREBP1 in liver” value [3] was “greatly repressed”. The “overexpression of SREBP1” value [3] was “not modulated”, the “increased mRNA levels of hepatic lipogenesis genes (SREBP1, LXR, FXR)” value ([3]; real-time PCR) was “attenuated” and the “changes of key lipogenic enzyme in both gene and protein levels” value ([3]; real-time PCR and Western blot) was “ameliorated changes”. For the same molecule, the “metabolic network (plasma metabolites)” value (AIA rats [4]) was “effectively repair the metabolic network”, the “changes in arthritis score” value (AIA rats [5]) was “significantly (p<0.001) ameliorated” and the “changes in paw volume” value (AIA rats [5]) was “significantly (p<0.001) ameliorated”.
